The target of test [1] is Porphobilinogen deaminase (Homo sapiens) (UniProt P08397). The conditions noted are these: at 100 µM.
Description: (§1) Compound was evaluated for the inhibition of human HMBS at 100uM
For test [2], the target named is Ferrochelatase, mitochondrial (Homo sapiens) (UniProt P22830). The conditions noted are these: at 10 µM.
Description: (§2) Compound was evaluated for the inhibition of human FECH at 10uM
Test [3] has as its target T1, Porphobilinogen deaminase (Homo sapiens) (UniProt P08397).
T1 sequence (whole entry): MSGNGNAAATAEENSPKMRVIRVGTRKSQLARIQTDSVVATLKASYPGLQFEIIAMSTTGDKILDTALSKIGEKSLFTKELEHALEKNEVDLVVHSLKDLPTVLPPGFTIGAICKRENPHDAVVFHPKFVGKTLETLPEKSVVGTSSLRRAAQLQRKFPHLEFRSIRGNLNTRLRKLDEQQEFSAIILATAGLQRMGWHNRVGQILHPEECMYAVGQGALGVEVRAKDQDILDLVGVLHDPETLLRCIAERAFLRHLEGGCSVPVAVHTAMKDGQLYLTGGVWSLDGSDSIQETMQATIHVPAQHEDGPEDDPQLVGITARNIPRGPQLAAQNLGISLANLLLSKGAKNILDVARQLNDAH
The conditions noted are these: at 100 µM. The source holds these as a separate data set.
Description: as §1

For test [4], the target named is T2, Ferrochelatase, mitochondrial (Homo sapiens) (UniProt P22830).
T2 sequence (whole entry): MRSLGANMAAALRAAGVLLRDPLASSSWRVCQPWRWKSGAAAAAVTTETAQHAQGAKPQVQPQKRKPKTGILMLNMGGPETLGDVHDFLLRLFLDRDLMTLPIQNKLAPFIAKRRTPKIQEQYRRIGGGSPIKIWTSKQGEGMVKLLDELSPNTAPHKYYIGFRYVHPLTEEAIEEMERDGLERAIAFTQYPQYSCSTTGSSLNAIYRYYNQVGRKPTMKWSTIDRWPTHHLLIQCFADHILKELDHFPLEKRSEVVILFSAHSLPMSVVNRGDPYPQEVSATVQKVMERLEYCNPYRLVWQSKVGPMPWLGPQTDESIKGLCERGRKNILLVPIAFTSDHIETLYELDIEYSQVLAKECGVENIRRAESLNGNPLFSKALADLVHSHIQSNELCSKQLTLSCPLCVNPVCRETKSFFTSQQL
The note with it: at 10 µM. This is another data set of the same source.
Description: as §2

Active and inactive are the calls of the source. The rule behind the calls is not given here.

As to MMV688978, the inhibition result in test [1] and in test [2] was “inactive” each time.
`CCc1nc2ccc(Cl)cn2c1C(=O)NCc1ccc(N2CCC(c3ccc(OC(F)(F)F)cc3)CC2)cc1`: the inhibition result in test [3] and in test [4] was “inactive” throughout.
With `Cc1cc(NCC(C)C)c2[nH]nc(-c3ccccc3)c2n1`, the inhibition entry in test [3] and in test [4] was “inactive” in each case.
`CCCS(=O)(=O)N1CCC(CO)(Cc2ccccc2C(F)(F)F)CC1`: the inhibition entry in test [3] and in test [4] was “inactive” each time.
On to `Cc1ccc2[nH]c3c(NCCN(C)C)ncnc3c2c1`, for which the inhibition entry in test [3] and in test [4] was “inactive” throughout.
Turning to `Clc1ccc(CCNc2cc(-c3ccccc3)nc3ncnn23)cc1`, the inhibition result in test [3] and in test [4] was “inactive” throughout.
Take `O=C(NCc1cc(Cl)cc(Cl)c1)c1c(C(F)(F)F)nc2ccccn12`: the inhibition entry in test [3] and in test [4] was “inactive” in each case.
For the compound `O=C(Nc1cccc(-c2ccc(NCCCN3CCCC3)nc2)c1)c1ccccc1`, the inhibition entry in test [3] and in test [4] was “inactive” each time.
Regarding `O=C(Nc1nnc(-c2ccc(Cl)cc2)o1)c1cccc(C(F)(F)F)c1`, the inhibition result in test [3] and in test [4] was “inactive” in each case.
For `CN1CCCN(C(c2ccccc2)c2ccc(Cl)cc2)CC1` (stereo not drawn), the inhibition entry in test [3] and in test [4] was “inactive” throughout.
Regarding `Cc1cc(C)n2nc(C(=O)Nc3cc(C(F)(F)F)ccc3N3CCOCC3)nc2n1`, the inhibition entry in test [3] and in test [4] was “inactive” throughout.
On to `O=C(C(Cc1c[nH]c2ccccc12)NS(=O)(=O)c1ccc(Cl)cc1)N1CCCCC1` (stereo not drawn), for which the inhibition result in test [3] and in test [4] was “inactive” each time.
Consider `Cc1ccc(NC(=O)c2cc(S(=O)(=O)NC(C)(C)C)ccc2C)nc1`, for which the inhibition result in test [3] and in test [4] was “inactive” each time.
As to `COc1ccc(-c2cnc3ccc(N4CCCC4)nn23)cc1OC`, the inhibition result in test [3] and in test [4] was “inactive” each time.
Turning to `COc1ccccc1OCCCCn1c(C2CC2)nc2ccccc21`, the inhibition result in test [3] and in test [4] was “inactive” each time.
With `COc1cccn2c(C(=O)N3CCCCC3)c(C(F)(F)F)nc12`, the inhibition entry in test [3] and in test [4] was “inactive” each time.
For the compound `CN(C(=O)c1cc2c(-c3cncnc3)cccc2[nH]1)c1ccccc1`, the inhibition entry in test [3] and in test [4] was “inactive” each time.
In the case of `COc1cc(C2=NCCN2)cc2cc(-c3ccc(C4=NCCN4)cc3)oc12`, the inhibition entry in test [3] and in test [4] was “inactive” each time.
With `CC(Oc1cccc(Cl)c1)C(=O)Nc1ccc2oc(-c3ccncc3)nc2c1` (stereo not drawn), the inhibition entry in test [3] and in test [4] was “inactive” each time.
`N#CCN(CCCCN1CCN(c2ccc(F)cc2)CC1)C(=O)OCc1ccccc1`: the inhibition result in test [3] and in test [4] was “inactive” in each case.
For the compound `CCCn1c(CNc2ccccc2O)nc2ccccc21`, the inhibition result in test [3] and in test [4] was “inactive” each time.
As for `CCOc1ccc2cc(-c3nn(C(C)(C)C)c(N)c3C(N)=O)cnc2c1`, the inhibition result in test [3] and in test [4] was “inactive” each time.
For `Cc1c[nH]c(CCNC(=O)c2cc(-c3ccc(Cl)cc3)cs2)n1`, the inhibition result in test [3] and in test [4] was “inactive” throughout.
As for `COC(=O)C1=C(C)NC(C)=C(C(=O)OC(C)C)C1c1cccc2nonc12` (stereo not drawn), the inhibition entry in test [3] and in test [4] was “inactive” each time.

Source of the values: ChEMBL document CHEMBL3987221, “The Australian National University Dept Of Immunology Pathogen Box Compounds Screened” (2018).
